Measured values: patent US20230090391A1, “OMECAMTIV MECARBIL TABLET” (Amgen Inc., priority 2020, published 2023)
Counter-ions that a name gives are not always drawn.

What was measured:
[1] = Phase 1 crossover study: safety and tolerability of single oral doses of OM; format: in vivo, healthy adult subjects; conditions: all 5 treatments
Experimental: The secondary objective of the study was to evaluate the safety and tolerability of a single 6 mg dose (administered as mini-tablets) or 25 mg dose (administered as a MR tablet or mini-tablets) of OM administered to healthy adult subjects.
The study was a Phase 1, single-center, open-label, randomized, 5-period, 4-sequence crossover study to investigate the pharmacokinetics, safety, and tolerability of the disclosed tablet formulations and a conventional MR tablet formulation of OM in healthy male and healthy female adult subjects. Subjects were screened to assess eligibility to enter the study within 21 days prior to the first dose administration. Subjects were admitted into the clinical research unit on Day 1 and confined to the clinical research unit for Periods 1 through 5 until discharged at end of study. Following randomization into 1 of 4 treatment sequences, subjects received 1 of the 5 treatments on Day 1 of each treatment period with all subjects receiving all 5 treatments. Blood was collected at predetermined timepoints to characterize plasma concentrations of OM. Safety and tolerability monitoring was performed throughout the study.
Up to twenty subjects (5 per sequence) were enrolled in the study. Data for all 20 subjects entered into the study were included in the PK and safety analyses. Healthy male or female subjects were selected according to inclusion and exclusion criteria. The subjects were assigned to one of the five following Treatment Groups (A-E): • Treatment Group A: 25 mg (1×25 mg) OM MR tablet; • Treatment Group B: 25 mg (25×1 mg) OM slow-release mini-tablets; • Treatment Group C: 25 mg (25×1 mg) OM fast-release mini-tablets; • Treatment Group D: 6 mg (6×1 mg) OM slow-release mini-tablets; and • Treatment Group E: 6 mg (6×1 mg) OM fast-release mini-tablets.
The safety analysis included monitoring adverse events, clinical laboratory evaluations, 12 lead electrocardiograms (ECGs), and vital signs during the study.
All safety data were listed. The treatment-emergent adverse events were summarized by treatment, severity, and relationship to the study drug. The frequency of treatment emergent adverse events was summarized by treatment, system organ class and preferred term of the Medical Dictionary for Regulatory Activities. No inferential statistical analyses were planned.

[2] = 19F solid state NMR of granulation and IR mini-tablet cores (physical form); format: physicochemical; conditions: 19F SSNMR of IR granulation and IR mini-tablet cores
Description: Cores 1A-1C, as well as the corresponding granulates, were subjected to analytical characterizations. The results are depicted in FIGS. 3 and 4.
FIGS. 3 and 4 depict the ^19F solid state NMR (SSNMR) spectra of the immediate-release granulation and immediate-release mini-tablet cores.

Row | Structure (SMILES) | Clinical laboratory evaluations, vital signs, 12-lead ECGs ([1]; 20 subjects) | Number of subjects reporting treatment-emergent adverse events considered related to OM ([1]; 20 subjects) [subjects] | Serious adverse events ([1]; 20 subjects) | Treatment-emergent adverse events leading to discontinuation ([1]; 20 subjects) | Severity of adverse events ([1]; 20 subjects, resolved by the end of the study) | Number of treatment-emergent adverse events considered related to OM ([1]; myalgia, dizziness, costochondritis, muscle twitching, non-cardiac chest pain) | Stability and physical form during manufacturing [2]
1 | COC(=O)N1CCN(Cc2cccc(NC(=O)Nc3ccc(C)nc3)c2F)CC1 [OM, Omecamtiv mecarbil] | no clinically significant findings | 7 | no serious adverse events | no treatment-emergent adverse events led to premature discontinuation | mild | Eight | 
2 | COC(=O)N1CCN(Cc2cccc(NC(=O)Nc3ccc(C)nc3)c2F)CC1 [omecamtiv mecarbil dihydrochloride monohydrate] |  |  |  |  |  |  | stable during manufacturing and exhibits no change in physical form
